# Earlier results as cited in patent US5952306A, “Integrin receptor antagonists” (Merck & Co., Inc., priority 1997, dated 1999).
# Key:
# [1] = test system: platelet aggregation and thrombus formation in mammalian blood
# [2] = test system: cell attachment-promoting effects of fibronectin and vitronectin
substance,measurement,setting,value
Echistatin,block bone resorption,bone resorption,can effectively block bone resorption
N-amidino-piperidine-3-carboxylglycyl-L-aspartyl-L-valine,inhibit platelet aggregation and thrombus formation in mammalian blood,[1],inhibit platelet aggregation and thrombus formation
arginine-glycine-aspartic acid [Arg-Gly-Asp],activity (duplicate or inhibit cell attachment-promoting effects),[2],low activity
